In the CheMixHub ionic liquid set:

Assay: xn = mol fraction of the nth substance listed

CCCCCCCCCCCC[N+](C)(C)C.[Br-] + [Cl-].[Na+] + O
298.15 K, 101 kPa
Conditions	electrical conductivity [S/m]
x1 = 2.89e-06, x2 = 0.001799	0.8786
x1 = 4.51e-06, x2 = 0.0001802	0.1179
x1 = 7.42e-06, x2 = 0.001799	0.8778
x1 = 9.37e-06, x2 = 0.0001802	0.1201
x1 = 1.357e-05, x2 = 0.001799	0.878
x1 = 1.406e-05, x2 = 0.0001802	0.1223
x1 = 2.037e-05, x2 = 0.0001802	0.1252
x1 = 2.28e-05, x2 = 0.001799	0.8786
x1 = 2.92e-05, x2 = 0.0001802	0.1294
x1 = 3.184e-05, x2 = 0.001799	0.8802
x1 = 4.038e-05, x2 = 0.0001802	0.1348
x1 = 4.071e-05, x2 = 0.001799	0.8816
x1 = 4.957e-05, x2 = 0.001799	0.8831
x1 = 5.047e-05, x2 = 0.0001802	0.1397
x1 = 5.536e-05, x2 = 0.001799	0.8846
x1 = 6.115e-05, x2 = 0.001799	0.8858
x1 = 6.183e-05, x2 = 0.0001802	0.1451
x1 = 6.694e-05, x2 = 0.001799	0.8876
x1 = 7.273e-05, x2 = 0.001799	0.8895
x1 = 7.319e-05, x2 = 0.0001801	0.1504
x1 = 7.87e-05, x2 = 0.001799	0.8913
x1 = 8.4e-05, x2 = 0.0001801	0.1556
x1 = 8.467e-05, x2 = 0.001799	0.893
x1 = 9.064e-05, x2 = 0.001799	0.8946
x1 = 9.481e-05, x2 = 0.0001801	0.1607
x1 = 9.642e-05, x2 = 0.001799	0.8963
x1 = 0.000102, x2 = 0.001799	0.8978
x1 = 0.0001071, x2 = 0.0001801	0.1667
x1 = 0.0001078, x2 = 0.001799	0.8993
x1 = 0.0001134, x2 = 0.001799	0.9008
x1 = 0.0001199, x2 = 0.0001801	0.1727
x1 = 0.0001219, x2 = 0.001799	0.9032
x1 = 0.0001275, x2 = 0.001799	0.9048
x1 = 0.0001309, x2 = 0.0001801	0.1778
x1 = 0.0001331, x2 = 0.001799	0.9066
x1 = 0.0001415, x2 = 0.001798	0.9086
x1 = 0.0001435, x2 = 0.0001801	0.1838
x1 = 0.0001498, x2 = 0.001798	0.9101
x1 = 0.0001548, x2 = 0.0001801	0.1892
x1 = 0.0001554, x2 = 0.001798	0.9111
x1 = 0.000161, x2 = 0.001798	0.9122
x1 = 0.0001673, x2 = 0.0001801	0.1949
x1 = 0.0001693, x2 = 0.001798	0.9132
x1 = 0.0001776, x2 = 0.001798	0.9143
x1 = 0.0001793, x2 = 0.0001801	0.2005
x1 = 0.0001856, x2 = 0.001798	0.9156
x1 = 0.0001914, x2 = 0.0001801	0.2061
x1 = 0.0001935, x2 = 0.001798	0.9166
x1 = 0.0002017, x2 = 0.001798	0.9175
x1 = 0.0002022, x2 = 0.0001801	0.2111
x1 = 0.0002098, x2 = 0.001798	0.9186
x1 = 0.0002138, x2 = 0.0001801	0.2164
x1 = 0.000218, x2 = 0.001798	0.9197
x1 = 0.0002251, x2 = 0.0001801	0.2214
x1 = 0.0002259, x2 = 0.001798	0.9207
x1 = 0.0002339, x2 = 0.001798	0.9217
x1 = 0.0002365, x2 = 0.0001801	0.2263
x1 = 0.000246, x2 = 0.0001801	0.2301
x1 = 0.000257, x2 = 0.0001801	0.2333
x1 = 0.0002685, x2 = 0.0001801	0.2357
x1 = 0.0002797, x2 = 0.0001801	0.2376
x1 = 0.0002912, x2 = 0.0001801	0.2394
x1 = 0.0003044, x2 = 0.0001801	0.2413
x1 = 0.000319, x2 = 0.0001801	0.2432
x1 = 0.0003359, x2 = 0.0001801	0.2454
x1 = 0.0003538, x2 = 0.0001801	0.2477
x1 = 0.0003736, x2 = 0.0001801	0.2502
x1 = 0.0003955, x2 = 0.0001801	0.2528
x1 = 0.0004254, x2 = 0.0001801	0.2566

CC[n+]1ccn(C)c1.N#C[S-] + [N-]=C=S.[NH4+]
100 kPa, x2 = 0
Conditions	electrical conductivity [S/m]	viscosity [mPa·s]
323.15 K	4.38	11.49
348.15 K	–	6.87
353.15 K	–	6.17

CCCCn1n[n+](CC)c2ccccc21.F[P-](F)(F)(F)(F)F + c1c[nH]cn1
101.3 kPa, x2 = 0.6993
Conditions	electrical conductivity [S/m]	viscosity [mPa·s]
343 K	1.1	11
353 K	1.4	7.7
363 K	1.8	5.6
373 K	2.2	5.2
383.1 K	2.9	4.2
393.1 K	3.2	3.6
403.1 K	3.8	3.1

CCCC[N+]1(C)CCCC1.N#C[C-](C#N)C#N + c1ccc2sccc2c1
101 kPa
Conditions	viscosity [mPa·s]
308.15 K, x2 = 0	20.6
308.15 K, x2 = 0.5267	11.92
328.15 K, x2 = 0.5267	7.1
338.15 K, x2 = 0.3565	6.96

N#C[C-](C#N)C#N.OCC[n+]1ccccc1 + c1ccsc1
101 kPa
Conditions	viscosity [mPa·s]
293.15 K, x1 = 0.7041	52.2
293.15 K, x1 = 1	137
298.15 K, x1 = 0.901	67.1
303.15 K, x1 = 0.4996	19.1
303.15 K, x1 = 0.901	50.9
318.15 K, x1 = 0.8044	21.1
323.15 K, x1 = 0.6	12.2
328.15 K, x1 = 0.7041	12.6
328.15 K, x1 = 0.901	17.9
333.15 K, x1 = 0.4996	7.57
333.15 K, x1 = 0.6	9.12
338.15 K, x1 = 0.4042	5.4
338.15 K, x1 = 0.4996	6.54
338.15 K, x1 = 0.7041	9.43
343.15 K, x1 = 0.4996	5.74
343.15 K, x1 = 0.8044	9.9
